Assay results published in US9315475B2 (MERCK SHARP & DOHME CORP., priority 2011, dated 2016).

test system: HIV-1 (H9IIIB strain); assay: Antiviral acute infection assay in cell culture (Spread); assay type: cell-based; conditions: Human immunodeficiency virus 1, T-lymphoid, HIV-1 H9IIIB infection of MT-4 human T-lymphoid cells in 10% FBS; mean of at least two independent experiments
Excerpt: Antiviral Assays in Cell Culture (“Spread”)
Acute Infection Assay (“Spread”) data were generated using HIV-1 (H9IIIB strain) infection of MT-4 human T-lymphoid cells in 10% FBS, and according to the methods disclosed by J. P. Vacca et al, “L-735,524: An orally bioavailable human immunodeficiency virus type 1 protease inhibitor,” Proc. Natl. Acad. Sci. USA, Vol. 91, pp. 4096-4100 (April 1994).

Row | Compound | EC50 [nM]
1 | O=C(CC(F)(F)F)NC[C@@H]1CO[C@H](CCc2c(F)cncc2NC(=O)CC(c2ccc(F)cc2)c2ccc(F)cc2)CN1 [Example 143, N-({(3R,6R)-6-[2-(3-{[3,3-Bis(4-fluorophenyl)propanoyl]amino}-5-fluoropyridin-4-yl)ethyl]morpholin-3-yl}methyl)-3,3,3-trifluoropropanamide] | 40
2 | COC(=O)N[C@H](C(=O)Nc1cccc(F)c1CC[C@@H]1CN[C@H](COC(N)=O)CO1)[C@@H](c1ccc(F)cc1)c1cccc(F)c1 [Example 118, (βS)—N-[2-(2-{(2R,5S)-5-[(Carbamoyloxy)methyl]morpholin-2-yl}ethyl)-3-fluorophenyl]-4-fluoro-β-(3-fluorophenyl)-Nα-(methoxycarbonyl)-L-phenylalaninamide] | 17
3 | O=C(CC(c1ccc(F)cc1)c1ccc(F)cc1)Nc1cncc(F)c1CC[C@@H]1CN[C@H](COC(=O)NCc2ccc(F)cc2)CO1 [Example 176, {(3S,6R)-6-[2-(3-{[3,3-bis(4-fluoro-phenyl)propanoyl]amino}-5-fluoropyridin-4-yl)ethyl]morpholin-3-yl}methyl (4-fluorobenzyl)carbamate] | 73
4 | CCc1nc(CNC(=O)OC[C@@H]2CO[C@H](CCc3c(F)cncc3NC(=O)CC(c3ccc(F)cc3)c3ccc(F)cc3)CN2)no1 [Example 174, {(3S,6R)-6-[2-(3-{[3,3-bis(4-fluoro-phenyl)propanoyl]amino}-5-fluoropyridin-4-yl)ethyl]morpholin-3-yl}methyl [(5-ethyl-1,2,4-oxadiazol-3-yl)methyl]carbamate] | 120
5 | O=C(CC(c1ccc(F)cc1)c1ccc(F)cc1)Nc1cncc(F)c1CC[C@@H]1CN[C@H](COC(=O)NCCNc2ccccc2)CO1 [Example 168, {(3S,6R)-6-[2-(3-{[3,3-bis(4-fluorophenyl)propanoyl]amino}-5-fluoropyridin-4-yl)ethyl]morpholin-3-yl}methyl [2-(phenyl-amino)ethyl]carbamate] | 13
6 | O=C(C[C@@H](c1ccc(F)cc1)c1cncc(C(F)(F)F)c1)Nc1cncc(F)c1CC[C@@H]1CN[C@H](COC(=O)NCC(F)(F)F)CO1 [Example 184, [(3S,6R)-6-{2-[3-fluoro-5-({(3S)-3-(4-fluorophenyl)-3-[5-(trifluoromethyl)pyridin-3-yl]propanoyl}amino)pyridin-4-yl]ethyl}morpholin-3-yl]methyl (2,2,2-trifluoroethyl)carbamate] | 15
7 | O=C(CC(c1ccc(F)cc1)c1ccc(F)cc1)Nc1cncc(F)c1CC[C@@H]1CN[C@H](COC(=O)NC2CCOC2)CO1 (stereo partly drawn) [Example 173, {(3S,6R)-6-[2-(3-{[3,3-bis(4-fluoro-phenyl)propanoyl]amino}-5-fluoropyridin-4-yl)ethyl]morpholin-3-yl}methyl tetrahydrofuran-3-ylcarbamate] | 37
8 | O=C(CC(c1ccc(F)cc1)c1ccc(F)cc1)Nc1cncc(F)c1CC[C@@H]1CN[C@H](COC(=O)NCc2ccno2)CO1 [Example 188, {(3S,6R)-6-[2-(3-{[3,3-bis(4-fluoro-phenyl)propanoyl]amino}-5-fluoropyridin-4-yl)ethyl]morpholin-3-yl}methyl (isoxazol-5-ylmethyl)carbamate] | 50
9 | O=C(CC(c1ccc(F)cc1)c1ccc(F)cc1)Nc1cncc(F)c1CC[C@@H]1CN[C@H](CNC(=O)OCC(F)(F)F)CO1 [Example 85, 2,2,2-trifluoroethyl ({(3R,6R)-6-[2-(3-{[3,3-bis(4-fluoro-phenyl)propanoyl]amino}-5-fluoropyridin-4-yl)ethyl]morpholin-3-yl}methyl)carbamate] | 87
10 | NC(=O)[C@H]1CCCCC1NC(=O)OC[C@@H]1CO[C@H](CCc2c(F)cncc2NC(=O)CC(c2ccc(F)cc2)c2ccc(F)cc2)CN1 (stereo partly drawn) [Example 187, {(3S,6R)-6-[2-(3-{[3,3-bis(4-fluoro-phenyl)propanoyl]amino}-5-fluoropyridin-4-yl)ethyl]morpholin-3-yl}methyl [(2S)-2-carbamoylcyclohexyl] carbamate] | 210

More lines, now with the values ahead:

Row | EC50 [nM] | Compound
11 | 240 | COc1ccc([C@H](CC(=O)Nc2cncc(F)c2CC[C@@H]2CN[C@H](COC(=O)NCC(F)(F)F)CO2)c2ccccc2)cc1Cl [Example 179, {(3S,6R)-6-[2-(3-{[(3R)-3-(3-chloro-4-methoxyphenyl)-3-phenylpropanoyl]amino}-5-fluoropyridin-4-yl)ethyl]morpholin-3-yl}methyl (2,2,2-trifluoroethyl)carbamate]
12 | 1400 | N[C@H](C(=O)Nc1cccc(F)c1CC[C@@H]1CN[C@H](COC(=O)NC2CCOCC2)CO1)C(c1ccc(F)cc1)c1ccc(F)cc1 [Example 223, 4-fluoro-β-(4-fluorophenyl)-N-(3-fluoro-2-{2-[(2R,5S)-5-{[(tetrahydro-2H-pyran-4-ylcarbamoyl)oxy]methyl}morpholin-2-yl]ethyl}phenyl)-L-phenylalaninamide]
13 | 37 | N#Cc1ccc([C@H](c2ccc(F)c(F)c2)[C@H](N)C(=O)Nc2cccc(F)c2CC[C@@H]2CN[C@H](COC(=O)NCC(F)(F)F)CO2)cc1 [Example 102, (βR)-β-(4-Cyanophenyl)-3,4-difluoro-N-(3-fluoro-2-{2-[(2R,5S)-5-({[(2,2,2-trifluoroethyl)carbamoyl]oxy}methyl)morpholin-2-yl]ethyl}phenyl)-L-phenylalaninamide]
14 | 9.8 | COC(=O)N[C@H](C(=O)Nc1cccc(F)c1CC[C@@H]1CN[C@H](COC(=O)NCC(F)(F)F)CO1)[C@@H](c1ccc(Cl)cc1)c1cncc(F)c1 [Example 137, (βS)-4-Chloro-β-(5-fluoropyridin-3-yl)-N-(3-fluoro-2-{2-[(2R,5S)-5-({[(2,2,2-trifluoroethyl)carbamoyl]oxy}methyl)morpholin-2-yl]ethyl}phenyl)-Nα-(methoxycarbonyl)-L-phenylalaninamide]
15 | 6.5 | COC(=O)N[C@H](C(=O)Nc1cncc(F)c1CC[C@@H]1CN[C@H](COC(=O)NCC(F)(F)F)CO1)[C@@H](c1ccc(Cl)cc1)c1cccc(OC(F)(F)F)c1 [Example 106, (βS)-β-(4-Chlorophenyl)-N-(5-fluoro-4-{2-[(2R,5S)-5-({[(2,2,2-trifluoroethyl)carbamoyl]oxy}methyl)morpholin-2-yl]ethyl}pyridin-3-yl)-Nα-(methoxycarbonyl)-3-(trifluoromethoxy)-L-phenylalaninamide]
16 | 31 | O=C(C[C@@H](c1ccc(F)cc1)c1ccncc1F)Nc1cccc(F)c1CC[C@@H]1CN[C@H](COC(=O)NCC(F)(F)F)CO1 [Example 138, {(3S,6R)-6-[2-(2-Fluoro-6-{[(3S)-3-(4-fluorophenyl)-3-(3-fluoropyridin-4-yl)propanoyl]amino}phenyl)ethyl]morpholin-3-yl}methyl (2,2,2-trifluoroethyl)carbamate]
17 | 320 | CS(=O)(=O)c1ccc([C@@H](CC(=O)Nc2cccc(F)c2CC[C@@H]2CN[C@H](COC(=O)NCC(F)(F)F)CO2)c2cccc(F)c2)cc1 [Example 113, [(3S,6R)-6-{2-[2-Fluoro-6-({(3R)-3-(3-fluorophenyl)-3-[4-(methylsulfonyl)phenyl]propanoyl}amino)phenyl]ethyl}morpholin-3-yl]methyl (2,2,2-trifluoroethyl)carbamate]
18 | 25 | COC(=O)N[C@H](C(=O)Nc1cncc(F)c1CC[C@@H]1CN[C@H](COC(=O)NCC(F)(F)F)CO1)[C@@H](c1ccc(F)cc1)c1cccc(Cl)c1 [Example 301, (βS)-3-chloro-β-(4-fluorophenyl)-N-(5-fluoro-4-{2-[(2R, 5S)-5-({[(2,2,2-trifluoroethyl)carbamoyl]oxy}methyl)morpholin-2-yl]ethyl}pyridin-3-yl)-Nα-(methoxycarbonyl)-L-phenylalaninamide]
19 | 690 | O=C(C[C@@H](c1ccc(F)cc1)c1ccsc1)Nc1cccc(F)c1CC[C@@H]1CN[C@H](COC(=O)NCC(F)(F)F)CO1 [Example 183, {(3S,6R)-6-[2-(2-fluoro-6-{[(3S)-3-(4-fluorophenyl)-3-thiophen-3-ylpropanoyl]amino}phenyl)ethyl]morpholin-3-yl}methyl (2,2,2-trifluoroethyl)carbamate]
20 | 60 | N[C@H](C(=O)Nc1cccc(F)c1CC[C@@H]1CN[C@H](COC(=O)NCC(F)(F)F)CO1)[C@@H](c1ccc(Cl)cc1)c1ccncc1F [Example 136, (βS)-4-Chloro-β-(3-fluoropyridin-4-yl)-N-(3-fluoro-2-{2-[(2R,5S)-5-({[(2,2,2-trifluoroethyl)carbamoyl]oxy}methyl)morpholin-2-yl]ethyl}phenyl)-L-phenylalaninamide]
21 | 31 | N#Cc1cccc([C@@H](CC(=O)Nc2cccc(F)c2CC[C@@H]2CN[C@H](COC(=O)NCC(F)(F)F)CO2)c2ccc(F)cc2)c1 [Example 160, {(3S,6R)-6-[2-(2-{[(3S)-3-(3-cyanophenyl)-3-(4-fluorophenyl)propanoyl]amino}-6-fluoro-phenyl)ethyl]morpholin-3-yl}methyl (2,2,2-trifluoroethyl)carbamate]
22 | 26 | COC(=O)N[C@H](C(=O)Nc1cncc(F)c1CC[C@@H]1CN[C@H](COC(=O)NCC(F)(F)F)CO1)[C@@H](c1ccc(Cl)cc1)c1ccc2c(c1)OCO2 [Example 104, (βS)-β-1,3-Benzodioxol-5-yl-4-chloro-N-(5-fluoro-4-{2-[(2R,5S)-5-({[(2,2,2-trifluoroethyl)carbamoyl]oxy}methyl)morpholin-2-yl]ethyl}pyridin-3-yl)-Nα-(methoxycarbonyl)-L-phenylalaninamide]
23 | 310 | O=C(C[C@@H](c1ccc(F)cc1)c1ccccc1C(F)(F)F)Nc1cncc(F)c1CC[C@@H]1CN[C@H](COC(=O)NCC(F)(F)F)CO1 [Example 180, [(3S,6R)-6-{2-[3-fluoro-5-({(3S)-3-(4-fluorophenyl)-3-[2-(trifluoro-methyl)phenyl]propanoyl}amino)pyridin-4-yl]ethyl}morpholin-3-yl]methyl (2,2,2-trifluoroethyl)carbamate]
